Measured values: patent US10597388B2, “Pyridazinone herbicides” (FMC CORPORATION, priority 2014, dated 2020)

How the values were obtained:
Assay in all cases: Test C greenhouse herbicide test, pre- and postemergence
Format in all cases: in vivo
[1] = tested on: wheat (winter wheat, Triticum aestivum)
In short: (§1)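 Visual ratings on a 0 to 100 scale (0 = no effect, 100 = complete control) versus untreated controls, scored 13–15 d after treatment. Soil-applied preemergence to seeded loam/sand; foliar postemergence to 1- to 4-leaf plants (2–18 cm) in peat-vermiculite mix; compounds formulated in solvent plus surfactant.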

[2] = tested on: morningglory (Ipomoea coccinea)
In short: as §1

[3] = tested on: waterhemp (common waterhemp, Amaranthus rudis)
In short: as §1

[4] = tested on: pigweed (Amaranthus retroflexus)
In short: as §1

soybean (Glycine max) = tested on: soybean (Glycine max)
In short: as §1

[5] = tested on: ragweed (common ragweed, Ambrosia elatior)
In short: as §1

[6] = tested on: blackgrass (Alopecurus myosuroides)
In short: as §1

[7] = tested on: lambsquarters (Chenopodium album)
In short: as §1

[8] = tested on: velvetleaf (Abutilon theophrasti)
In short: as §1

[9] = tested on: johnsongrass (Sorghum halepense)
In short: as §1

[10] = tested on: crabgrass, large (large crabgrass, Digitaria sanguinalis)
In short: as §1

[11] = tested on: barnyardgrass (Echinochloa crus-galli)
In short: as §1

[12] = tested on: ryegrass, Italian (Italian ryegrass, Lolium multiflorum)
In short: as §1

corn (Zea mays) = tested on: corn (Zea mays)
In short: as §1

[13] = tested on: nutsedge, yellow (yellow nutsedge, Cyperus esculentus)
In short: as §1

[14] = Preemergence, 31 g ai/ha, scale 0 to 100, 0 is no effect, 100 is complete control
[15] = Preemergence, 62 g ai/ha, scale 0 to 100, 0 is no effect, 100 is complete control
[16] = Preemergence, 125 g ai/ha, scale 0 to 100, 0 is no effect, 100 is complete control
[17] = Preemergence, 250 g ai/ha, scale 0 to 100, 0 no effect, 100 complete control
[18] = Postemergence, 31 g ai/ha, scale 0 to 100 (0 no effect, 100 complete control)
[19] = Postemergence, 125 g ai/ha, scale 0 to 100, 0 is no effect, 100 is complete control
[20] = Postemergence, 250 g ai/ha, scale 0 to 100, 0 no effect, 100 complete control, 13 to 15 d
[21] = postemergence, 62 g ai/ha, scale 0 to 100, 0 no effect, 100 complete control

CC(=O)Oc1c(Cl)nn(C)c(=O)c1-c1c(C)sc2ccc(Cl)cc12 [Compound 116]
Plant response rating, Wheat [1, 14]: 0 | Plant response rating, Wheat [1, 15]: 0 | Plant response rating, Wheat [1, 16]: 5 | Wheat plant response rating [1, 17]: 15 | Plant response rating, Morningglory [2, 14]: 55 | Plant response rating, Morningglory [2, 15]: 80 | Plant response rating, Morningglory [2, 16]: 85 | Morningglory plant response rating [2, 17]: 98 | Plant response rating, Waterhemp [3, 14]: 55 | Plant response rating, Waterhemp [3, 15]: 70 | Plant response rating, Waterhemp [3, 16]: 80 | Waterhemp plant response rating [3, 17]: 100 | Plant response rating, Pigweed [4, 14]: 95 | Plant response rating, Pigweed [4, 15]: 100 | Plant response rating, Pigweed [4, 16]: 100 | Pigweed plant response rating [4, 17]: 100 | Plant response rating, Soybean (soybean (Glycine max); [15]): 0 | Plant response rating, Soybean (soybean (Glycine max); [16]): 0 | Soybean plant response rating (soybean (Glycine max); [17]): 5 | Plant response rating, Ragweed [5, 14]: 85 | Plant response rating, Ragweed [5, 15]: 90 | Plant response rating, Ragweed [5, 16]: 95 | Ragweed plant response rating [5, 17]: 100 | Plant response rating, Blackgrass [6, 14]: 0 | Plant response rating, Blackgrass [6, 15]: 5 | Plant response rating, Blackgrass [6, 16]: 30 | Blackgrass plant response rating [6, 17]: 35 | Plant response rating, Lambsquarters [7, 14]: 65 | Plant response rating, Lambsquarters [7, 15]: 98 | Plant response rating, Lambsquarters [7, 16]: 90 | Lambsquarters plant response rating [7, 17]: 95 | Plant response rating, Velvetleaf [8, 14]: 70 | Plant response rating, Velvetleaf [8, 15]: 85 | Plant response rating, Velvetleaf [8, 16]: 100 | Velvetleaf plant response rating [8, 17]: 100 | Plant response rating, Johnsongrass [9, 14]: 0 | Plant response rating, Johnsongrass [9, 15]: 0 | Plant response rating, Johnsongrass [9, 16]: 0 | Johnsongrass plant response rating [9, 17]: 10 | Plant response rating, Crabgrass, Large [10, 14]: 0 | Plant response rating, Crabgrass, Large [10, 15]: 20 | Plant response rating, Crabgrass, Large [10, 16]: 50 | Crabgrass, Large plant response rating [10, 17]: 90 | Plant response rating, Barnyardgrass [11, 14]: 5 | Plant response rating, Barnyardgrass [11, 15]: 30 | Plant response rating, Barnyardgrass [11, 16]: 70 | Barnyardgrass plant response rating [11, 17]: 95 | Plant response rating, Ryegrass, Italian [12, 14]: 5 | Plant response rating, Ryegrass, Italian [12, 15]: 30 | Plant response rating, Ryegrass, Italian [12, 16]: 70 | Ryegrass, Italian plant response rating [12, 17]: 90 | Plant response rating, Corn (corn (Zea mays); [14]): 0 | Plant response rating, Corn (corn (Zea mays); [15]): 0 | Plant response rating, Corn (corn (Zea mays); [16]): 60 | Corn plant response rating (corn (Zea mays); [17]): 25 | Plant response rating, Nutsedge, Yellow [13, 14]: 0 | Plant response rating, Nutsedge, Yellow [13, 15]: 35 | Plant response rating, Nutsedge, Yellow [13, 16]: 85 | Nutsedge, Yellow plant response rating [13, 17]: 95

CCCC(=O)Oc1c(C)nn(C)c(=O)c1-c1c(CC)sc2ccc(C)cc12 [Compound 107]
Plant response rating, Wheat [1, 18]: 0 | Plant response rating, Wheat [1, 19]: 0 | Plant response rating, Wheat [1, 20]: 0 | Plant response rating, Wheat [1, 14]: 0 | Plant response rating, Wheat [1, 15]: 0 | Plant response rating, Wheat [1, 16]: 0 | Wheat plant response rating [1, 17]: 5 | Plant response rating, Morningglory [2, 18]: 95 | Plant response rating, Morningglory [2, 19]: 98 | Plant response rating, Morningglory [2, 20]: 100 | Plant response rating, Morningglory [2, 14]: 80 | Plant response rating, Morningglory [2, 15]: 85 | Plant response rating, Morningglory [2, 16]: 95 | Morningglory plant response rating [2, 17]: 98 | Plant response rating, Waterhemp [3, 18]: 75 | Plant response rating, Waterhemp [3, 19]: 95 | Plant response rating, Waterhemp [3, 20]: 90 | Plant response rating, Waterhemp [3, 14]: 75 | Plant response rating, Waterhemp [3, 15]: 75 | Plant response rating, Waterhemp [3, 16]: 95 | Waterhemp plant response rating [3, 17]: 98 | Plant response rating, Pigweed [4, 18]: 85 | Plant response rating, Pigweed [4, 19]: 98 | Plant response rating, Pigweed [4, 20]: 98 | Plant response rating, Pigweed [4, 14]: 100 | Plant response rating, Pigweed [4, 15]: 100 | Plant response rating, Pigweed [4, 16]: 100 | Pigweed plant response rating [4, 17]: 100 | Plant response rating, Soybean (soybean (Glycine max); [18]): 0 | Plant response rating, Soybean (soybean (Glycine max); [19]): 20 | Plant response rating, Soybean (soybean (Glycine max); [20]): 10 | Plant response rating, Soybean (soybean (Glycine max); [14]): 75 | Plant response rating, Soybean (soybean (Glycine max); [15]): 0 | Plant response rating, Soybean (soybean (Glycine max); [16]): 0 | Soybean plant response rating (soybean (Glycine max); [17]): 15 | Plant response rating, Ragweed [5, 18]: 85 | Plant response rating, Ragweed [5, 19]: 98 | Plant response rating, Ragweed [5, 20]: 98 | Plant response rating, Ragweed [5, 14]: 75 | Plant response rating, Ragweed [5, 15]: 90 | Plant response rating, Ragweed [5, 16]: 85 | Ragweed plant response rating [5, 17]: 100 | Plant response rating, Blackgrass [6, 18]: 0 | Plant response rating, Blackgrass [6, 19]: 5 | Plant response rating, Blackgrass [6, 20]: 30 | Plant response rating, Blackgrass [6, 14]: 0 | Plant response rating, Blackgrass [6, 15]: 5 | Plant response rating, Blackgrass [6, 16]: 10 | Blackgrass plant response rating [6, 17]: 10 | Blackgrass plant response rating [6, 21]: 5 | Plant response rating, Lambsquarters [7, 18]: 85 | Plant response rating, Lambsquarters [7, 19]: 90 | Plant response rating, Lambsquarters [7, 20]: 98 | Plant response rating, Lambsquarters [7, 14]: 90 | Plant response rating, Lambsquarters [7, 15]: 100 | Plant response rating, Lambsquarters [7, 16]: 95 | Lambsquarters plant response rating [7, 17]: 95 | Plant response rating, Velvetleaf [8, 18]: 75 | Plant response rating, Velvetleaf [8, 19]: 95 | Plant response rating, Velvetleaf [8, 20]: 100 | Plant response rating, Velvetleaf [8, 14]: 30 | Plant response rating, Velvetleaf [8, 15]: 60 | Plant response rating, Velvetleaf [8, 16]: 85 | Velvetleaf plant response rating [8, 17]: 90 | Plant response rating, Johnsongrass [9, 18]: 0 | Plant response rating, Johnsongrass [9, 19]: 0 | Plant response rating, Johnsongrass [9, 20]: 20 | Plant response rating, Johnsongrass [9, 14]: 0 | Plant response rating, Johnsongrass [9, 15]: 0 | Plant response rating, Johnsongrass [9, 16]: 10 | Johnsongrass plant response rating [9, 17]: 20 | Plant response rating, Crabgrass, Large [10, 18]: 15 | Plant response rating, Crabgrass, Large [10, 19]: 35 | Plant response rating, Crabgrass, Large [10, 20]: 65 | Plant response rating, Crabgrass, Large [10, 14]: 30 | Plant response rating, Crabgrass, Large [10, 15]: 30 | Plant response rating, Crabgrass, Large [10, 16]: 75 | Crabgrass, Large plant response rating [10, 17]: 85 | Crabgrass, Large plant response rating [10, 21]: 20 | Plant response rating, Barnyardgrass [11, 18]: 35 | Plant response rating, Barnyardgrass [11, 19]: 40 | Plant response rating, Barnyardgrass [11, 20]: 90 | Plant response rating, Barnyardgrass [11, 14]: 15 | Plant response rating, Barnyardgrass [11, 15]: 45 | Plant response rating, Barnyardgrass [11, 16]: 80 | Barnyardgrass plant response rating [11, 17]: 98 | Barnyardgrass plant response rating [11, 21]: 50 | Plant response rating, Ryegrass, Italian [12, 18]: 40 | Plant response rating, Ryegrass, Italian [12, 19]: 60 | Plant response rating, Ryegrass, Italian [12, 20]: 90 | Plant response rating, Ryegrass, Italian [12, 14]: 15 | Plant response rating, Ryegrass, Italian [12, 15]: 35 | Plant response rating, Ryegrass, Italian [12, 16]: 35 | Ryegrass, Italian plant response rating [12, 17]: 30 | Plant response rating, Corn (corn (Zea mays); [18]): 5 | Plant response rating, Corn (corn (Zea mays); [19]): 20 | Plant response rating, Corn (corn (Zea mays); [20]): 15 | Plant response rating, Corn (corn (Zea mays); [14]): 0 | Plant response rating, Corn (corn (Zea mays); [15]): 0 | Plant response rating, Corn (corn (Zea mays); [16]): 10 | Corn plant response rating (corn (Zea mays); [17]): 15 | Corn plant response rating (corn (Zea mays); [21]): 10 | Plant response rating, Nutsedge, Yellow [13, 18]: 80 | Plant response rating, Nutsedge, Yellow [13, 19]: 75 | Plant response rating, Nutsedge, Yellow [13, 20]: 85 | Plant response rating, Nutsedge, Yellow [13, 14]: 30 | Plant response rating, Nutsedge, Yellow [13, 15]: 50 | Plant response rating, Nutsedge, Yellow [13, 16]: 70 | Nutsedge, Yellow plant response rating [13, 17]: 90
